Test results as given in patent US11253524B2 (Gilead Sciences, Inc., priority 2018, dated 2022).

Assays:
OATP1B1 = biological target: T1, OATP1B1 (Homo sapiens, UniProt Q9Y6L6); experiment: OATP1B1 inhibition assay using 3H-E217βG as probe substrate, HEK293FT cells; format: cell-based; parameters: expressed in transfected cells; conditions: for IC50 (μM): NIO = no interaction observed
T1 sequence (Q9Y6L6 1-691): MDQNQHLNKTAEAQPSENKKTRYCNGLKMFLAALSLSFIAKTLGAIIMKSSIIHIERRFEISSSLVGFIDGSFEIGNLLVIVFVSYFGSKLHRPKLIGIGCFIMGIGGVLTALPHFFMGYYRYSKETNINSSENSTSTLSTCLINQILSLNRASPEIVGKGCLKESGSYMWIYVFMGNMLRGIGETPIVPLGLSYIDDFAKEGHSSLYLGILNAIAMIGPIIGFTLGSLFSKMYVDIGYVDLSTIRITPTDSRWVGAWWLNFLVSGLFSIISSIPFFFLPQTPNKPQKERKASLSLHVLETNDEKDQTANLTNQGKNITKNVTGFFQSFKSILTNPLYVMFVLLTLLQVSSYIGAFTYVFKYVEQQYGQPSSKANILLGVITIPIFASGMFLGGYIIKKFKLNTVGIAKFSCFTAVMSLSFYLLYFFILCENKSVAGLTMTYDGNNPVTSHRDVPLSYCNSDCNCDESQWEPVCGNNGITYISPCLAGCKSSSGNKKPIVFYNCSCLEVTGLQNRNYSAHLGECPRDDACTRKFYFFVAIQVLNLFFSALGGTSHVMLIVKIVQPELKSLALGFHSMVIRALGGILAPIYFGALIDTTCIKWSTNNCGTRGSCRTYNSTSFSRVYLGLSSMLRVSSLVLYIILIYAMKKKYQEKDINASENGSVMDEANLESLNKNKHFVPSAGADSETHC
Procedure: (§1) HEK293FT-Mock and OATP-transfected cells (1×10^5 cells each) were seeded 24 hr prior to assay. Pre-rinsed ells were incubated for 3 minutes with 1 μM ^3H-E217βG in HK buffer in the presence of various concentrations of test compound or positive control rifampicin. After the experiment cells were rinsed with Krebs-Henseleit buffer and lysed with 0.1 M NaOH. The amount of substrate inside the cells was determined by liquid scintillation reader.
(§2) Percent inhibition was calculated according to the following equation: % inhibition=[1−{[OATP]i−[WT]ni}/{[OATP]ni−[WT]ni}]*100 where: [OATP]i represent the substrate accumulation in the presence of test compound for either OATP1B1, OATP1B3, or OATP2B1 cells; [OATP]ni represents the substrate accumulation in the absence of test compound for either OATP1B1, OATP1B3, or OATP2B1 cells, respectively; and [WT]ni represents the substrate accumulation in the absence of test compound for wild type cells or Mock cells, respectively. IC50 Determination in Transporter Assays
(§3) IC50 was determined according to the procedures described in Example 5. […] Results are reported as NIO (no interaction observed).

OATP1B3 = biological target: T2, OATP1B3 (Homo sapiens, UniProt Q9NPD5); experiment: OATP1B3 inhibition assay using 3H-E217βG as probe substrate, HEK293FT cells; format: cell-based; parameters: expressed in transfected cells
T2 sequence (Q9NPD5 1-702): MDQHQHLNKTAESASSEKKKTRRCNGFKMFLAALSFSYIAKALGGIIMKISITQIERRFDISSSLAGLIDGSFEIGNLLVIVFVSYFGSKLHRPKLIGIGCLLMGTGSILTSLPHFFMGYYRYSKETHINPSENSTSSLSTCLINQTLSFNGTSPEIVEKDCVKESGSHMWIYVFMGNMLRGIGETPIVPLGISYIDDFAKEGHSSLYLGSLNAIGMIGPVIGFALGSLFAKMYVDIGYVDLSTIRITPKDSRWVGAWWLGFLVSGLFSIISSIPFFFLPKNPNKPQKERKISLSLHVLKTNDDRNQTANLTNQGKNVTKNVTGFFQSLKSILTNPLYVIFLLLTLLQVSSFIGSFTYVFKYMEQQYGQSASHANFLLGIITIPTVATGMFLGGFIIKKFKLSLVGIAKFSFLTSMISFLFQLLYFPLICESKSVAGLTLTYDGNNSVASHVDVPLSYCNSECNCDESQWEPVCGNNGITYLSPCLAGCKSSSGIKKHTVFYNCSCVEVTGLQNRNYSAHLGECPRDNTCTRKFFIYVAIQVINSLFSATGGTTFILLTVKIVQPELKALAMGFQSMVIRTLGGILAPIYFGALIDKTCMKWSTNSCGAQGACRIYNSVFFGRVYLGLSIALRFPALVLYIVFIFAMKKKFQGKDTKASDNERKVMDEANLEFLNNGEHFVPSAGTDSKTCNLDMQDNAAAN
Procedure: as §1, §2, §3

OATP2B1 = biological target: T3, OATP2B1 (Homo sapiens, UniProt O94956); experiment: OATP2B1 inhibition assay, 3H-E3S uptake, MDCKII cells; format: cell-based
T3 construct: expressed in transfected cells; host or cells: MDCKII cells
T3 sequence (O94956 1-709): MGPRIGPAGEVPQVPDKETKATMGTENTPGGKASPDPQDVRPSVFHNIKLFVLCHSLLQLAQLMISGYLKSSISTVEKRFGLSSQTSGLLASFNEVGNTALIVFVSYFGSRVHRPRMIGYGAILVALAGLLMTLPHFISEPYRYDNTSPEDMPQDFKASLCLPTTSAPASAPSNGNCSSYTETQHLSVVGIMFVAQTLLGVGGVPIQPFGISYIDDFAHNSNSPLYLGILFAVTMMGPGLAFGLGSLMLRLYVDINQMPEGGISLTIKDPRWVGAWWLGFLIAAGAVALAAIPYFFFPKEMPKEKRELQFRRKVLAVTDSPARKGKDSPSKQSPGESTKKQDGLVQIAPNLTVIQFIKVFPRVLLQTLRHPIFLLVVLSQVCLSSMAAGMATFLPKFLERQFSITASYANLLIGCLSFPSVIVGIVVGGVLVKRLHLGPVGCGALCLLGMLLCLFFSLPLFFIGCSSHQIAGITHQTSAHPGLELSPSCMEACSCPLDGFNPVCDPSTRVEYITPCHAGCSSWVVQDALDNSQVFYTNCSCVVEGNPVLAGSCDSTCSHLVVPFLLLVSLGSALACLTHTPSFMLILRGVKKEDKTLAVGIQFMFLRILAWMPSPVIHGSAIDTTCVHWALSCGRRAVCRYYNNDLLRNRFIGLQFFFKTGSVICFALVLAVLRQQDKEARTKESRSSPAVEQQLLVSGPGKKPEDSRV
Procedure: MDCKII-Mock and OATP2B1-transfected cells (1×10^5 cells each) were seeded 24 hr prior to assay. Pre-rinsed cells were incubated for 2 minutes with 0.2 μM ^3H-E3S in HK buffer in the presence of various concentrations of test compound or positive control fluvastatin. After the experiment cells were rinsed with Krebs-Henseleit buffer and lysed with 0.1 M NaOH. The amount of substrate inside the cells was determined by liquid scintillation reader.
as §2, §3

[1] = system: cryopreserved hepatocytes; experiment: Metabolites of [14C]BIC in cryopreserved hepatocytes, dog; format: in vitro ADME; conditions: Beagle Dog hepatocytes, 4 hours, [14C]BIC 20 μM
Source text: Metabolic pathways included hydroxylation (3 variants), N-dealkylation, and direct glucuronidation. All human metabolites were also observed in nonclinical species. Using the hepatocyte system where the full range of hepatic metabolic enzymes are represented, it appeared that the metabolism of BIC was extensive in monkey and dog but lower in rat and human.

SMILES: O=C(NCc1c(F)cc(F)c(OS(=O)(=O)O)c1F)c1cn2c(c(O)c1=O)C(=O)N1C(C2)O[C@@H]2CC[C@H]1C2 (some centres unmarked) [Metabolite M20]
- IC50 (μM) (OATP1B1): NIO*
- Maximum inhibition at highest test conc. (% of control) (OATP1B1; at 100 μM): no dose dependent inhibition
- inhibition at 3 min, 100 µM (OATP1B1; human, HEK293FT cells transfected with OATP1B1, probe 3H-E217βG (1 μM), at 100 μM, read-out: Maximum inhibition at highest test conc. (% of control)): 12%
- IC50 (OATP1B3; NIO = no interaction observed): > 100 µM
- inhibition at 3 min, 100 µM (OATP1B3; human, HEK293FT cells transfected with OATP1B3, probe 3H-E217βG (1 μM), at 100 μM, read-out: Maximum inhibition at highest test conc. (% of control)): 49%
- IC50 (OATP2B1; NIO = no interaction observed): > 100 µM
- inhibition at 2 min, 100 µM (OATP2B1; human, MDCKII cells transfected with OATP2B1, probe 3H-E3S (0.2 μM), at 100 μM, read-out: Maximum inhibition at highest test conc. (% of control)): 26%

SMILES: O=C(NCc1c(F)cc(F)cc1F)c1cn2c(c(O)c1=O)C(=O)N1[C@H]3CC[C@H](C3)O[C@@H]1C2 [BIC, bictegravir, reference compound]
- IC50 (μM) (OATP1B1): NIO
- Fraction of Radiochromatogram (%) [1]: 78.7%
- IC50 (μM) (OATP1B3; NIO = no interaction observed): NIO
- IC50 (μM) (OATP2B1; NIO = no interaction observed): NIO
